According to patent US20090264401A1, “SUBSTITUTED PYRIMIDIN-5-CARBOXAMIDES 281” (AstraZeneca AB, priority 2008, published 2009):

Molecular target: T1, human 11βHSD1 enzyme (Homo sapiens, UniProt P28845)
T1 construct: baculovirus expressed N terminal 6-His tagged full length human 11βHSD1 enzyme; 6-His (N); made in house
Assay: 11βHSD1 cortisone to cortisol conversion, competitive HTRF assay
Type: biochemical
Conditions: for inhibition at 30 µM: human 11-βHSD, test concentration of 30 μM of compound
Outline: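 Enzyme was baculovirus-expressed, N-terminal 6-His-tagged full-length human 11βHSD1, purified on a copper chelate column. Compounds were added in buffer containing 1% DMSO at 10-fold final concentration.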

T1 sequence (P28845 whole entry): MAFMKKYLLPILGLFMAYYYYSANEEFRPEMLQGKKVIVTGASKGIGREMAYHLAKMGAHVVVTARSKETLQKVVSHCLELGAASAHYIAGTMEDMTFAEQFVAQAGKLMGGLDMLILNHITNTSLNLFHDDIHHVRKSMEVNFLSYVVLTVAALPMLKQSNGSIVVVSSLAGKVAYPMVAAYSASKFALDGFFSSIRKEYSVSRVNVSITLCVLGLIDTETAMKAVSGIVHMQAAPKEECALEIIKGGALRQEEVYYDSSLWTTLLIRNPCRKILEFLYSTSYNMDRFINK

SMILES	inhibition at 30 µM [%]	IC50 (recombinant N terminal 6-His tagged full length human 11βHSD1, cortisone 160 nM, 25 minutes at 37° C.) [nM]
O=C(N[C@H]1C2CC3CC1C[C@@](O)(C3)C2)c1cnc(C2CC2)nc1C1CCCC1 [Example 149, 4-Cyclopentyl-2-cyclopropyl-N-[(2r,5s)-5-hydroxyadamantan-2-yl]pyrimidine-5-carboxamide]	92	–
CC(C)Nc1ncc(C(=O)N[C@H]2C3CC4CC2C[C@@](O)(C4)C3)c(C2CCCO2)n1 (some centres unmarked) [Example 159, N-[(2r,5s)-5-hydroxyadamantan-2-yl]-4-(oxolan-2-yl)-2-(propan-2-ylamino)pyrimidine-5-carboxamide]	98.2	–
Cc1ncc(C(=O)NC2C3CC4CC(C3)CC2C4)c(C2CC2)n1 (centres unmarked) [Example 12, N-(2-adamantyl)-4-cyclopropyl-2-methyl-pyrimidine-5-carboxamide]	97.3	45
CC(=O)N1CCN(c2ncc(C(=O)N[C@H]3C4CC5CC3C[C@@](O)(C5)C4)c(C3CCCC3)n2)CC1 [Example 126, 2-(4-acetylpiperazin-1-yl)-4-cyclopentyl-N-[(2r,5s)-5-hydroxyadamantan-2-yl]pyrimidine-5-carboxamide]	96.6	–
O=C(N[C@H]1C2CC3CC1C[C@@](O)(C3)C2)c1cnc(NC2CCCC2)nc1C1CC1 [Example 57, 2-(cyclopentylamino)-4-cyclopropyl-N-[(2r,5s)-5-hydroxyadamantan-2-yl]pyrimidine-5-carboxamide]	102	–
O=C(N[C@H]1C2CC3CC1C[C@@](O)(C3)C2)c1cnc(N2CCC2)nc1N1CCC1 [Example 201, 2,4-bis(azetidin-1-yl)-N-[(2r,5s)-5-hydroxyadamantan-2-yl]pyrimidine-5-carboxamide]	95	–
C[C@H]1COCCN1c1ncc(C(=O)N[C@H]2C3CC4CC2C[C@@](O)(C4)C3)c(C2CCCC2)n1 [Example 123]	99.1	–
CN1CCN(c2ncc(C(=O)N[C@H]3C4CC5CC3C[C@@](O)(C5)C4)c(C3CCCC3)n2)CC1=O [Example 128, 4-cyclopentyl-N-[(2r,5s)-5-hydroxyadamantan-2-yl]-2-(4-methyl-3-oxopiperazin-1-yl)pyrimidine-5-carboxamide]	99.1	–
Cc1ncc(C(=O)N[C@H]2C3CC4CC2C[C@@](O)(C4)C3)c(C2CC(F)(F)C2)n1 [Example 153, 4-(3,3-difluorocyclobutyl)-N-[(2s,5r)-5-hydroxyadamantan-2-yl]-2-methylpyrimidine-5-carboxamide]	91.7	–
O=C(N[C@H]1C2CC3CC1C[C@@](O)(C3)C2)c1cnc(N2CCS(=O)(=O)CC2)nc1C1CCCC1 [Example 116, 4-Cyclopentyl-2-(1,1-dioxo-1,4-thiazinan-4-yl)-N-[(2r,5s)-5-hydroxyadamantan-2-yl]pyrimidine-5-carboxamide]	98.1	–
C[C@@H]1CN(c2ncc(C(=O)N[C@H]3C4CC5CC3C[C@](O)(C5)C4)c(C3CCCC3)n2)C[C@H](C)N1 [Example 134, 4-cyclopentyl-2-[(3S,5R)-3,5-dimethylpiperazin-1-yl]-N-[(2r,5s)-5-hydroxyadamantan-2-yl]pyrimidine-5-carboxamide]	94.1	–
O=C(N[C@H]1C2CC3CC1C[C@@](O)(C3)C2)c1cnc(NC2CCC2)nc1[C@H]1CCCO1 [Example 175, 2-(cyclobutaylamino)-N-[(2r,5s)-5-hydroxyadamantan-2-yl]-4-[(2R)-oxolan-2-yl]pyrimidine-5-carboxamide]	103	–
O=C(N[C@H]1C2CC3CC1C[C@@](O)(C3)C2)c1cnc(NC2COC2)nc1C1CCC1 [Example 104, 4-cyclobutyl-N-[(2r,5s)-5-hydroxyadamantan-2-yl]-2-(oxetan-3-ylamino)pyrimidine-5-carboxamide]	99.3	–
O=C(N[C@H]1C2CC3CC1C[C@@](O)(C3)C2)c1cnc(N2CCSCC2)nc1C1CCC1 [Example 41, 4-Cyclobutyl-N-[(2r,5s)-5-hydroxyadamantan-2-yl]-2-thiomorpholin-4-ylpyrimidine-5-carboxamide]	94	–
CCOc1nc(NC2CCC2)ncc1C(=O)N[C@H]1C2CC3CC1C[C@@](O)(C3)C2 [Example 212, 2-(cyclobutylamino)-4-ethoxy-N-[(2r,5s)-5-hydroxytricyclo[3.3.1.13,7]dec-2-yl]pyrimidine-5-carboxamide]	105	–
O=C(N[C@H]1C2CC3CC1C[C@@](O)(C3)C2)c1cnc(N2CCC[S+]([O-])CC2)nc1C1CC1 (some centres unmarked) [Example 44, 4-Cyclopropyl-N-[(2r,5s)-5-hydroxyadamantan-2-yl]-2-(1-oxo-1,4-thiazepan-4-yl)pyrimidine-5-carboxamide]	98	–
CC(C)Nc1ncc(C(=O)N[C@H]2C3CC4CC2C[C@@](O)(C4)C3)c([C@H]2CCCO2)n1 [Example 171, N-[(2r,5s)-5-hydroxyadamantan-2-yl]-4-[(2R)-oxolan-2-yl]-2-(propan-2-ylamino)pyrimidine-5-carboxamide]	103	–
CC(C)Oc1ncc(C(=O)N[C@H]2C3CC4CC2C[C@@](O)(C4)C3)c(C2CCCC2)n1 [Example 110, 4-cyclopentyl-N-[(2r,5s)-5-hydroxyadamantan-2-yl]-2-propan-2-yloxypyrimidine-5-carboxamide]	100	–
CS(=O)(=O)N1CCN(c2ncc(C(=O)N[C@H]3C4CC5CC3C[C@@](O)(C5)C4)c(C3CCCC3)n2)CC1 [Example 143, 4-cyclopentyl-N-[(2r,5s)-5-hydroxyadamantan-2-yl]-2-(4-methylsulfonylpiperazin-1-yl)pyrimidine-5-carboxamide]	95	–
CN(C)c1ncc(C(=O)N[C@H]2C3CC4CC2C[C@@](O)(C4)C3)c(C2CCC2)n1 [Example 86, 4-cyclobutyl-2-(dimethylamino)-N-[(2r,5s)-5-hydroxyadamantan-2-yl]pyrimidine-5-carboxamide]	97	–
Cc1ncc(C(=O)N[C@H]2C3CC4CC2C[C@@](O)(C4)C3)c(-c2ccccc2Cl)n1 [Example 189, 4-(2-Chlorophenyl)-N-[(2r,5s)-5-hydroxyadamantan-2-yl]-2-methylpyrimidine-5-carboxamide]	95.5	–
O=C(N[C@H]1C2CC3CC1C[C@@](O)(C3)C2)c1cnc(N2CCS(=O)(=O)CC2)nc1C1CCCCC1 [Example 198, 4-Cyclohexyl-2-(1,1-dioxidothiomorpholin-4-yl)-N-[(2r,5s)-5-hydroxyadamantan-2-yl]pyrimidine-5-carboxamide]	94	–
O=C(N[C@H]1C2CC3CC1C[C@@](O)(C3)C2)c1cnc(N2CC(F)(F)C2)nc1C1CC1 [Example 52, 4-cyclopropyl-2-(3,3-difluoroazetidin-1-yl)-N-[(2r,5s)-5-hydroxyadamantan-2-yl]pyrimidine-5-carboxamide]	92.5	–
O=C(N[C@H]1C2CC3CC1C[C@@](O)(C3)C2)c1cnc(N2CC(F)(F)C2)nc1C1CCC1 [Example 89, 4-cyclobutyl-2-(3,3-difluoroazetidin-1-yl)-N-[(2r,5s)-5-hydroxyadamantan-2-yl]pyrimidine-5-carboxamide]	95.5	–
Nc1ncc(C(=O)N[C@H]2C3CC4CC2C[C@@](O)(C4)C3)c(C2CCCC2)n1 [Example 135, 2-amino-4-cyclopentyl-N-[(2r,5s)-5-hydroxyadamantan-2-yl]pyrimidine-5-carboxamide]	100	–
